According to PubChem BioAssay (NCI):
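96-well plates; 48 h exposure; 5 concentrations. Endpoints by linear interpolation between flanking doses. Not reached: highest tested concentration assigned. TGI: total growth inhibition.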

How the values were obtained:
Assay in all cases: NCI tumour cell line growth inhibition, 48 h
OVCAR-3 ovarian = system: OVCAR-3 ovarian
UACC-62 melanoma = system: UACC-62 melanoma
RPMI-8226 leukemia = system: RPMI-8226 leukemia
NCI-H522 lung = system: NCI-H522 lung
SK-MEL-2 melanoma = system: SK-MEL-2 melanoma
NCI-H460 lung = system: NCI-H460 lung
EKVX NSCLC = system: EKVX NSCLC
OVCAR-8 ovarian = system: OVCAR-8 ovarian
HCT-116 colon = system: HCT-116 colon
P388/ADR leukemia = system: P388/ADR leukemia
OVCAR-4 ovarian = system: OVCAR-4 ovarian
HCC-2998 colon = system: HCC-2998 colon
SK-OV-3 ovarian = system: SK-OV-3 ovarian
SF-268 CNS = system: SF-268 CNS
HCT-15 colon = system: HCT-15 colon
XF 498 CNS = system: XF 498 CNS
RXF 393 renal = system: RXF 393 renal
SNB-78 CNS = system: SNB-78 CNS
MOLT-4 leukemia = system: MOLT-4 leukemia
SF-539 CNS = system: SF-539 CNS
LOX IMVI melanoma = system: LOX IMVI melanoma
UACC-257 melanoma = system: UACC-257 melanoma
KM20L2 colon = system: KM20L2 colon
M19-MEL melanoma = system: M19-MEL melanoma
MCF7 breast = system: MCF7 breast
SW-620 colon = system: SW-620 colon
SNB-19 CNS = system: SNB-19 CNS
HL-60(TB) leukemia = system: HL-60(TB) leukemia
CCRF-CEM leukemia = system: CCRF-CEM leukemia
DMS 273 small cell lung = system: DMS 273 small cell lung
HOP-18 NSCLC = system: HOP-18 NSCLC
HT29 colon = system: HT29 colon
SK-MEL-28 melanoma = system: SK-MEL-28 melanoma
UO-31 renal = system: UO-31 renal
CAKI-1 renal = system: CAKI-1 renal
NCI-H226 lung = system: NCI-H226 lung
SK-MEL-5 melanoma = system: SK-MEL-5 melanoma
IGROV1 ovarian = system: IGROV1 ovarian
SNB-75 CNS = system: SNB-75 CNS
K-562 leukemia = system: K-562 leukemia
A549 NSCLC = system: A549 NSCLC
NCI/ADR-RES ovarian = system: NCI/ADR-RES ovarian
SF-295 CNS = system: SF-295 CNS
P388 leukemia = system: P388 leukemia
KM12 colon = system: KM12 colon
OVCAR-5 ovarian = system: OVCAR-5 ovarian
COLO 205 colon = system: COLO 205 colon
A498 renal = system: A498 renal
HOP-92 NSCLC = system: HOP-92 NSCLC
MALME-3M melanoma = system: MALME-3M melanoma
SN12C renal = system: SN12C renal
U251 CNS = system: U251 CNS
NCI-H23 lung = system: NCI-H23 lung
DLD-1 colon = system: DLD-1 colon
SN12K1 renal = system: SN12K1 renal
HOP-62 NSCLC = system: HOP-62 NSCLC
LXFL 529 NSCLC = system: LXFL 529 NSCLC
M14 melanoma = system: M14 melanoma
786-0 renal = system: 786-0 renal
RXF-631 renal = system: RXF-631 renal
TK-10 renal = system: TK-10 renal
ACHN renal = system: ACHN renal
DMS 114 small cell lung = system: DMS 114 small cell lung

Molecule `C=CCn1c2ccccc2c2c(C)c3cnccc3c(C)c21` has a TGI (OVCAR-3 ovarian) of 48.6 µM, a TGI (UACC-62 melanoma) of 41.2 µM and a TGI (RPMI-8226 leukemia) of 29.5 µM. For the same molecule, the TGI (NCI-H522 lung) was 37.2 µM, the TGI (SK-MEL-2 melanoma) was > 71 µM and the TGI (NCI-H460 lung) was 37.8 µM. It also gave a TGI (EKVX NSCLC) of 66.1 µM, a TGI (OVCAR-8 ovarian) of 40.4 µM and a TGI (HCT-116 colon) of 46.9 µM. The TGI (P388/ADR leukemia) was 37.3 µM, the TGI (OVCAR-4 ovarian) was 64.2 µM and the TGI (HCC-2998 colon) was 104 µM. The TGI (SK-OV-3 ovarian) was 38.5 µM, the TGI (SF-268 CNS) was 88.7 µM and the TGI (HCT-15 colon) was > 95.5 µM. It also gave a TGI (XF 498 CNS) of 28.7 µM, a TGI (RXF 393 renal) of 24.5 µM and a TGI (SNB-78 CNS) of 125 µM. It also gave a TGI (MOLT-4 leukemia) of 9.82 µM, a TGI (SF-539 CNS) of 44.5 µM and a TGI (LOX IMVI melanoma) of 60 µM. The TGI (UACC-257 melanoma) was 41.9 µM, the TGI (KM20L2 colon) was 112 µM and the TGI (M19-MEL melanoma) was 58 µM. For the same molecule, the TGI (MCF7 breast) was 62.6 µM, the TGI (SW-620 colon) was 59.1 µM and the TGI (SNB-19 CNS) was > 78.2 µM. The TGI (HL-60(TB) leukemia) was 11.9 µM, the TGI (CCRF-CEM leukemia) was 24.5 µM and the TGI (DMS 273 small cell lung) was 37.7 µM. For the same molecule, the TGI (HOP-18 NSCLC) was > 125 µM, the TGI (HT29 colon) was 124 µM and the TGI (SK-MEL-28 melanoma) was > 125 µM. It also gave a TGI (UO-31 renal) of 32.8 µM, a TGI (CAKI-1 renal) of 6.75 µM and a TGI (NCI-H226 lung) of 40.3 µM. For the same molecule, the TGI (SK-MEL-5 melanoma) was 56.9 µM, the TGI (IGROV1 ovarian) was 95.3 µM and the TGI (SNB-75 CNS) was 57.4 µM. The TGI (K-562 leukemia) was 52.2 µM, the TGI (A549 NSCLC) was > 97.6 µM and the TGI (NCI/ADR-RES ovarian) was 34.4 µM. The TGI (SF-295 CNS) was 52.5 µM, the TGI (P388 leukemia) was 20.8 µM and the TGI (KM12 colon) was 83.9 µM. For the same molecule, the TGI (OVCAR-5 ovarian) was 69.9 µM, the TGI (COLO 205 colon) was 72.5 µM and the TGI (A498 renal) was 49.8 µM. For the same molecule, the TGI (HOP-92 NSCLC) was 29.8 µM, the TGI (MALME-3M melanoma) was 62 µM and the TGI (SN12C renal) was > 66.2 µM. For the same molecule, the TGI (U251 CNS) was 81.3 µM, the TGI (NCI-H23 lung) was 45.3 µM and the TGI (DLD-1 colon) was > 121 µM. The TGI (SN12K1 renal) was 52.5 µM and the TGI (HOP-62 NSCLC) was 36.3 µM.
In the case of `Cc1ccc(SSCCCS(=O)O)cc1`, the TGI (OVCAR-3 ovarian) is reported as > 100 µM, the TGI (UACC-62 melanoma) is reported as > 100 µM and the TGI (NCI-H522 lung) is reported as 37.5 µM. The TGI (SK-MEL-2 melanoma) was > 100 µM, the TGI (NCI-H460 lung) was > 100 µM and the TGI (LXFL 529 NSCLC) was > 100 µM. It also gave a TGI (EKVX NSCLC) of 88.5 µM, a TGI (OVCAR-8 ovarian) of 50 µM and a TGI (M14 melanoma) of 96.8 µM. For the same molecule, the TGI (HCT-116 colon) was > 100 µM, the TGI (786-0 renal) was > 100 µM and the TGI (RXF-631 renal) was > 100 µM. The TGI (OVCAR-4 ovarian) was > 100 µM, the TGI (HCC-2998 colon) was > 100 µM and the TGI (SK-OV-3 ovarian) was 85.9 µM. For the same molecule, the TGI (SF-268 CNS) was 48.2 µM, the TGI (HCT-15 colon) was > 100 µM and the TGI (XF 498 CNS) was > 100 µM. It also gave a TGI (RXF 393 renal) of 72.3 µM, a TGI (MOLT-4 leukemia) of 50.6 µM and a TGI (SF-539 CNS) of 40.6 µM. For the same molecule, the TGI (LOX IMVI melanoma) was 32.3 µM, the TGI (UACC-257 melanoma) was > 100 µM and the TGI (KM20L2 colon) was > 100 µM. The TGI (M19-MEL melanoma) was > 100 µM, the TGI (SW-620 colon) was > 100 µM and the TGI (SNB-19 CNS) was > 100 µM. For the same molecule, the TGI (HL-60(TB) leukemia) was 6.49 µM, the TGI (DMS 273 small cell lung) was 79 µM and the TGI (HOP-18 NSCLC) was > 100 µM. The TGI (HT29 colon) was > 100 µM, the TGI (SK-MEL-28 melanoma) was > 100 µM and the TGI (UO-31 renal) was > 100 µM. The TGI (TK-10 renal) was > 100 µM, the TGI (CAKI-1 renal) was > 100 µM and the TGI (SK-MEL-5 melanoma) was > 100 µM. For the same molecule, the TGI (IGROV1 ovarian) was 27.4 µM, the TGI (SNB-75 CNS) was 79.5 µM and the TGI (K-562 leukemia) was > 100 µM. For the same molecule, the TGI (A549 NSCLC) was > 100 µM, the TGI (SF-295 CNS) was > 100 µM and the TGI (KM12 colon) was > 100 µM. For the same molecule, the TGI (OVCAR-5 ovarian) was > 100 µM, the TGI (COLO 205 colon) was 52.9 µM and the TGI (A498 renal) was 69.9 µM. For the same molecule, the TGI (MALME-3M melanoma) was > 100 µM, the TGI (SN12C renal) was > 100 µM and the TGI (ACHN renal) was > 100 µM. For the same molecule, the TGI (U251 CNS) was 41.2 µM, the TGI (NCI-H23 lung) was > 100 µM and the TGI (DLD-1 colon) was > 100 µM. It also gave a TGI (DMS 114 small cell lung) of 37.1 µM and a TGI (HOP-62 NSCLC) of 78.4 µM.
